Activity calls are given as the source filed them.
How the values were obtained:
[1] = reduction of Shn3 3'UTR-driven luciferase in osteoblasts – cell-based, Clone20 osteoblasts, firefly luciferase, cherry-picked, dose response (AID 624132); format: functional;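 note: firefly luciferase luminescence from reporter carrying the Shn3 3'UTR in osteoblasts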
Jurkat = assay: blockers of NF-kB activation in T cells – Jurkat, luciferase reporter, luminescence, B- and T-cell, dose response (AID 489004); format: functional, cell-based; conditions: Homo sapiens;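 note: NF-kB luciferase reporter Jurkat cells stimulated with PMA plus ionomycin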
[2] = target: T1, Heat shock factor protein 1 (Mus musculus, UniProt P38532); assay: decrease of HSF1-responsive luciferase luminescence – cell-based, NIH3T3, dose retest, confirmation (AID 2382); format: functional;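 note: NIH3T3 fibroblasts with HSF1-driven luciferase reporter stressed by proteasome inhibitor MG132; luminescence from HSF1-driven luciferase expression after 8 hours of MG132 stress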
T1 sequence (P38532 whole entry): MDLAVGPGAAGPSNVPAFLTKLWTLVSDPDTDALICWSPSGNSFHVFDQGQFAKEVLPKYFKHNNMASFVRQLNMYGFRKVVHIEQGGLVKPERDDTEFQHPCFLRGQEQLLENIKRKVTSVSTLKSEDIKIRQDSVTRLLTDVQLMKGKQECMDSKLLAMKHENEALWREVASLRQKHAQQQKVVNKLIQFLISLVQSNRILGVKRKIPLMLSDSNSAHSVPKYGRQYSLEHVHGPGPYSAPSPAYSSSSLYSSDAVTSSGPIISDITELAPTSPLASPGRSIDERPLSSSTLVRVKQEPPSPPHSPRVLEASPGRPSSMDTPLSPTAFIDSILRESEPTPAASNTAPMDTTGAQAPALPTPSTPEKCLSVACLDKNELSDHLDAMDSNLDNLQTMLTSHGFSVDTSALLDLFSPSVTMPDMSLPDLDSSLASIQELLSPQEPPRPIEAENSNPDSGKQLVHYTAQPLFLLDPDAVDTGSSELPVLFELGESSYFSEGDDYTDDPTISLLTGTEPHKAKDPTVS

[3] = toxicity toward HepG2 liver cells – cell-based, plate reader, cherry-pick, antagonist series, cytotoxicity control, dose response (AID 743416); format: functional
[4] = blockers of bursicon-stimulated LGR2 cAMP reporter – cell-based, HEK293, CRE-luciferase reporter, cherry pick, set 2, dose response (AID 743343); format: functional;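 note: transfected cells were stimulated with diluted bursicon conditioned medium after compound addition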
[5] = blockade of melanocortin 4 receptor signaling – cell-based, plate reader, cherry pick, counter-screen for LGR2 antagonist project, dose response (AID 743444); format: functional;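 note: transfected HEK 293 cells stimulated with alpha-MSH peptide; potency of inhibitors of the alpha-MSH evoked signal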
[6] = non-specific 3'UTR reporter inhibition in Clone20-Shn3RL – cell-based, Renilla luciferase, cherry-picked, counter-screen for Shn3 inhibitor project, dose response (AID 624133); format: functional
[7] = target: Luciferin 4-monooxygenase (Photuris pensylvanica, UniProt Q27757); assay: inhibition of Cell Titer Glo luciferase signal – biochemical, luminescence, cherry-picks, counter-screen for HSF-1 reporter inhibitor project, dose response (AID 588847)
[8] = loss of viability in HepG2 cells – cell-based, CellTiter-Glo, cherry-picked, cytotoxicity control for Shn3 inhibitor project, dose response (AID 624134); format: functional
Protein skinhead-1 = target: T2, Protein skinhead-1 (Caenorhabditis elegans, UniProt P34707); format: functional
T2 sequence (P34707 whole entry): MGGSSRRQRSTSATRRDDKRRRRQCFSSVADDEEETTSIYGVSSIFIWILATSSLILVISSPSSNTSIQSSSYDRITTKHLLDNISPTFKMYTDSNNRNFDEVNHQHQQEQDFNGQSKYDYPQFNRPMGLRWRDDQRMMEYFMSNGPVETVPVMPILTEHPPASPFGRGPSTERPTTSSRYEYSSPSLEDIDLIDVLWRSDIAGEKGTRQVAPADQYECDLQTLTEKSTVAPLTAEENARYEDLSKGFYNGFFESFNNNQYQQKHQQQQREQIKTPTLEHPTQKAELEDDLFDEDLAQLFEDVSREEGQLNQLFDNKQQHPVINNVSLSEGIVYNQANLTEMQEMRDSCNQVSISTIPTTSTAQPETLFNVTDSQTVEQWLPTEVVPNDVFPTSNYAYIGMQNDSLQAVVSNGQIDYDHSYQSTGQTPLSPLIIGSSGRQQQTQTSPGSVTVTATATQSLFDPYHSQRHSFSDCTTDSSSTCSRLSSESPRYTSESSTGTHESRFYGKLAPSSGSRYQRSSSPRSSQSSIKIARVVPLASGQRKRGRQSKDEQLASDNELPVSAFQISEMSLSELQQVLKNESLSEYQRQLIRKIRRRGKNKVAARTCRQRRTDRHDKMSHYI

[9] = HEK-293T viability loss, compound-treated – cell-based, uHTS hits, cytotoxicity control for B/T-cell NF-kB inhibitor project, dose response (AID 489019); format: functional;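 note: IC50 reflects cytotoxicity as loss of cell viability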
Paired box protein Pax-8 = Paired box protein Pax-8 (Homo sapiens, UniProt Q06710); assay: PAX8 transcriptional activity inhibition in RMG-I – RMG-I cells, luciferase, cherry-pick, dose response (AID 687027); format: functional, cell-based;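 note: luciferase reporter driven by Pax8 target thyroperoxidase promoter measured by SteadyGlo luminescence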
[10] = viability loss in HEK293 cells – cell-based, plate reader, cherry-picked samples, cytotoxicity control, dose response (AID 743446); format: functional
Cysteine protease ATG4B = Cysteine protease ATG4B (Homo sapiens, UniProt Q9Y4P1); format: functional;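 note: Fluorescence-based dose-response confirmation assay measuring inhibition of ATG4B activity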
Streptococcus = assay: GAS UMAA2166 growth inhibition – luminescence, BacTiterGlo, counter-screen for streptokinase expression inhibitor project, dose response (AID 1915); format: functional, organism-based;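 note: potency for reduction of bacterial viability or growth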
Phospholipase A2 = Phospholipase A2 (Homo sapiens, UniProt P04054); format: functional;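 note: confirmatory dose-response counterscreen on phospholipase A2, testing hits that came from an ultra-high-throughput screen for ATG4B inhibitors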
[11] = system: Streptococcus sp. 'group A'; assay: Streptococcus pyogenes SK(-)GAS viability under kanamycin – luminescence, BacTiterGlo, confirmation, counter-screen for streptokinase expression inhibitor project, dose response (AID 1900); format: functional, organism-based
Streptokinase A = target: T3, Streptokinase A (Streptococcus pyogenes serotype M1, UniProt P10520); assay: viability-normalized secreted streptokinase activity reduction – plasminogen activation absorbance, OD405, dose response (AID 1914); format: functional, Streptococcus pyogenes M1 GAS;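 note: secreted streptokinase activity via plasminogen activation per viability signal from cell pellet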
T3 sequence (P10520 whole entry): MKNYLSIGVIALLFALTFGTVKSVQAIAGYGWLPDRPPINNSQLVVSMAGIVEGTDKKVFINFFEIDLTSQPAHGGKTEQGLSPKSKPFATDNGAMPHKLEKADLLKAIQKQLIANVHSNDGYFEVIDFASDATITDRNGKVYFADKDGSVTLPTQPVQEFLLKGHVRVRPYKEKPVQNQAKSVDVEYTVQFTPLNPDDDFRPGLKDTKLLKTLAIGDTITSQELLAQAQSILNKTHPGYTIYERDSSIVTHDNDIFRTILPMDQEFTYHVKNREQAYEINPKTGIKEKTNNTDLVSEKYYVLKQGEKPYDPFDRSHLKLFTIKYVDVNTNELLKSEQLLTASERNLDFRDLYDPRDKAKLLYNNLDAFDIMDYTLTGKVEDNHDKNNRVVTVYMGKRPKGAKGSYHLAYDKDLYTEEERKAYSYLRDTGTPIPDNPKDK

[12] = target: T4, DNA repair protein RAD52 homolog (Homo sapiens, UniProt P43351); format: functional, biochemical
T4 sequence (P43351 whole entry): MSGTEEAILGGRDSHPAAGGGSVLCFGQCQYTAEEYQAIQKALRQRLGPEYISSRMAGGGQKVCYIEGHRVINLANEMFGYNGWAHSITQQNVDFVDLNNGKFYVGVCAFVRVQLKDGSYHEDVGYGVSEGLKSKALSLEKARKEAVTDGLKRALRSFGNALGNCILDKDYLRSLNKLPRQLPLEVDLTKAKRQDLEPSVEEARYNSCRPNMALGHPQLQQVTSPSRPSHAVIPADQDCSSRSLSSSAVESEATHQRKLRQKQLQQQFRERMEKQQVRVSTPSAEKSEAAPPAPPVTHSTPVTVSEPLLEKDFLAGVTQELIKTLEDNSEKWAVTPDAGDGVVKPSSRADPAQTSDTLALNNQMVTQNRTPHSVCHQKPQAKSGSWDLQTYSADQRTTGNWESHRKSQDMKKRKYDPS

[13] = target: Latent membrane protein 1 (Human herpesvirus 4 (strain B95-8), UniProt P03230); assay: LMP1 TES1 pathway selectivity over dsRED control – imaging, HEK293T, dual-color eGFP/dsRED, cherry-picks, selectivity assay for LMP1 NF-kB inhibitor project, dose response (AID 588398); format: functional, cell-based
Sequence of Latent membrane protein 1 (P03230 whole entry): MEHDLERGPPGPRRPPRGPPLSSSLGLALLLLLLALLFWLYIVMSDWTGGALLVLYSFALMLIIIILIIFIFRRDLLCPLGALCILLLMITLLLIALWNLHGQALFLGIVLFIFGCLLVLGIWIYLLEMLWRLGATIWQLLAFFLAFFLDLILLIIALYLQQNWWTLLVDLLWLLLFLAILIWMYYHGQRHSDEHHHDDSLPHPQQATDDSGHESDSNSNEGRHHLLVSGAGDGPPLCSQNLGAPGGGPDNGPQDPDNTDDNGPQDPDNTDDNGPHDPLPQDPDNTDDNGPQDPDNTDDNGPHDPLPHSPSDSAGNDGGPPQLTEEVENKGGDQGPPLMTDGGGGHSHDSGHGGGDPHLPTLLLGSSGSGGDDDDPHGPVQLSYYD

Sequence of Luciferin 4-monooxygenase (Q27757 whole entry): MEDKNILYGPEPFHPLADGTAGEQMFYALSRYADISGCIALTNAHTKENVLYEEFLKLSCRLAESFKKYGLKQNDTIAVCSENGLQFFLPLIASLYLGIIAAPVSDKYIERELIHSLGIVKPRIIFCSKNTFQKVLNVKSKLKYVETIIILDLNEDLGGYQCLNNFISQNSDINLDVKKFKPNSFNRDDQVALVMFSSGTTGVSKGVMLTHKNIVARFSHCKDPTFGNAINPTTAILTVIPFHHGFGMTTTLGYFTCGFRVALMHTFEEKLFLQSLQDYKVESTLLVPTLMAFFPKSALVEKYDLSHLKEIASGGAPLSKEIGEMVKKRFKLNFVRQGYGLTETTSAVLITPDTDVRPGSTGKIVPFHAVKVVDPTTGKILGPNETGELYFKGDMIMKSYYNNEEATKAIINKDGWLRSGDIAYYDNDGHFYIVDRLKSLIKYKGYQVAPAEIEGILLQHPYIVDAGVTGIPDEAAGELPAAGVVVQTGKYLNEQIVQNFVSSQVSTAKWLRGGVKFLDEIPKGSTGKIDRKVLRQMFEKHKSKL
Sequence of Phospholipase A2 (P04054 whole entry): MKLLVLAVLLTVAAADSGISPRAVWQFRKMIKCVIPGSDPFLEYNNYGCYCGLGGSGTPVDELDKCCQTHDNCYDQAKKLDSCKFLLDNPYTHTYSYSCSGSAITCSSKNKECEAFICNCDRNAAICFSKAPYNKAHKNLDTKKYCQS
Sequence of Paired box protein Pax-8 (Q06710 whole entry): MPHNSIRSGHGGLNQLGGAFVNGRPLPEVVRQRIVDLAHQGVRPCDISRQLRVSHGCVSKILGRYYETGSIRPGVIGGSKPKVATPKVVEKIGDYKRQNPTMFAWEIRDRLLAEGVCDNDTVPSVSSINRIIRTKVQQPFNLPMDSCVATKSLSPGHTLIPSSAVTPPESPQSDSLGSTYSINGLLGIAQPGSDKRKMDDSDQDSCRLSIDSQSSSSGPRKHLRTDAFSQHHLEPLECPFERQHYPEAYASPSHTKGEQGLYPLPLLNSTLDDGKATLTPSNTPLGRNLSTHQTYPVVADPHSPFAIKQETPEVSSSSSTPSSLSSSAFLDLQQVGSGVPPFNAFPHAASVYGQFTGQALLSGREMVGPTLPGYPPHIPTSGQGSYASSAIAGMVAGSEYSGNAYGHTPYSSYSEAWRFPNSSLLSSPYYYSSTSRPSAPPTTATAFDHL
Sequence of Cysteine protease ATG4B (Q9Y4P1 whole entry): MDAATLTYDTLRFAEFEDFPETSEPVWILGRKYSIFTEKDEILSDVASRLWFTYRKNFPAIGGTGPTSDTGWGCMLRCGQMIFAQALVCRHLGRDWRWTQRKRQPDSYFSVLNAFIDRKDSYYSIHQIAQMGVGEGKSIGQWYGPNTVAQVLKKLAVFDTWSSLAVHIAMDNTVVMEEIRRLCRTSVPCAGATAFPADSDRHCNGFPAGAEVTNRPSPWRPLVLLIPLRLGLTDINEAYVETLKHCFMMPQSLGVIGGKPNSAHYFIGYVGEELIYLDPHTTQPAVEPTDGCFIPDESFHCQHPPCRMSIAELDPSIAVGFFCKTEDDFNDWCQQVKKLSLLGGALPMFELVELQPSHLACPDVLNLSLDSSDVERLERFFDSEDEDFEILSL

## CN(C(=O)OC(C)(C)C)c1ccc(-c2nc3ccccc3s2)cc1
[1]
  AC50: < 0.26 µM (active)
Jurkat
  IC50: < 0.16 µM (active)
[2]
  EC50: < 0.16 µM (active)
[3]
  AC50: > 52 µM (inactive)
[4]
  AC50: < 0.068 µM (active)
[5]
  AC50: < 0.068 µM (active)
[6]
  AC50: 7.35 µM (active)
[7]
  AC50: 1.42 µM (active)
[8]
  AC50: > 70 µM (inactive)
Protein skinhead-1
  IC50: > 100 µM (inactive)
[9]
  IC50: > 80 µM (inactive)
Paired box protein Pax-8
  AC50: 0.379 µM (active)
[10]
  AC50: 46.5 µM (active)

## CC(C)c1ccccc1OCC(=O)NC1CCCc2ccccc21 (stereo not given)
Cysteine protease ATG4B
  IC50: 12.2 µM (active)
Streptococcus
  EC50: > 150 µM (not active)
Phospholipase A2
  IC50: 9.38 µM (active)
[11]
  EC50: 16.3 µM (active)
Streptokinase A
  EC50: 18.5 µM (active)

## CC1(C)N=C(N)N=C(N)N1c1ccc(CCCCc2ccccc2)cc1
[12]
  AC50: 11.2 µM (active)
[13]
  AC50: 28.9 µM (active)

Source: ChEMBL document CHEMBL1201862, “PubChem BioAssay data set” (2004)
